From patent publication US8017584B2, “GD3-mimetic peptides” (Otsuka Pharmaceutical Co., Ltd., priority 2000, dated 2011)
“And” between values parts separate entries of the source, which are not always exact repeats. Identical values can stand only once.

Key:
[1] = tested on: T-cell-rich lymphocytes / IL-2-dependent CTLL2 cells; experiment: Cell response test: IL-2 activity (3H thymidine up-take of CTLL2 cells) in supernatant of spleen cells of mice immunized with R4 peptide (R4-KLH); format: cell-based, mouse; conditions: mice immunized with R4 peptide
Description: Using a fusion peptide R4-KLH obtained in Example 3 (4) between GD3R4 and KLH or a MAP form fusion peptide R4MAP-KLH created between GD3R4 and KLH, immunization was performed as described in (1) above.
Briefly, an emulsion mixed with an adjuvant (1:1, by volume) was administered to each member of groups of mice, each group consisting of 3 mice (CD-1), in an amount of 100 μL/mouse (for one administration (ip), peptide 30 μg/mouse) for immunization. In the case of R4-KLH, administration was performed every one week for one month, and subsequently every two weeks for one month; and in the case of R4MAP-KLH, every one week for 2 months. In any case, 4 days after the final immunization, blood was collected to thereby prepare antiserum samples.
(§1) The spleen aseptically removed from each of the above-immunized mice was minced in a 10% FCS-supplemented RPMI 1640 medium. By use of a nylon wool column, T-cell-rich lymphocytes were prepared and the cells were counted. The above medium containing the cells in an amount of 10^5 cells per 150 μL was added to each of the wells of a culture plate. PHA was added so as to attain a final concentration of 1 μg/mL. A peptide of the present invention or any of different gangliosides in PBS was added, and the mixture was incubated for 96 hours. A supernatant (100 μL) was obtained from each well. The IL-2 activity of the supernatant was determined through use of IL-2-dependent mouse cells, CTLL2. Briefly, the supernatant (100 μL) diluted 2 to 50-fold with a medium was added to the wells in an amount of 10^4 CTLL2 cells/well, followed by incubation at 37° C. for 48 hours. Subsequently, 3H-thymidine (0.5 μCi) was added to each well, followed by incubation for 6 hours. CTLL2 cells were recovered on a paper filter and counted for 3H.

GD3 antibody 4F6 [2] = experiment: ELISA of immobilized MAP-form GD3-mimetic peptides with anti-GD3 antibody (Example 3(3)); format: binding, mouse; conditions: MAP form 100 ng/well
Description: (§2) A 0.1M NaHCO3 solution containing each of the phage clones obtained in Example 1 (10^11, 10^10, or 10^9 titer/100 μL) was added to the wells of a 96-well microtiter plate (product of Nunc), for immobilization of the phage clones at room temperature for one hour. The supernatant was removed, then the wells were subjected to blocking by use of a blocking solution ([…]; TBS containing 1% BSA, 0.1% skim milk, and 0.02% Tween 20; pH 7.5) at 37° C. for four hours.
(§3) The supernatant was removed, then GD3 antibody 4F6 (100 μL), serving as a primary antibody, was added to each well for reaction under shaking at room temperature for two hours. After completion of reaction, the supernatant was removed, then the wells were washed six times with a washing solution (400 μL for each well, TBS containing 0.05% Tween 20). Subsequently, a secondary antibody (anti-mouse IgG-HRP, product of Santa Cruz Biotechnology, catalogue No. SC-2031, Lot. No. C089) which was diluted 5,000-fold by use of a blocking solution prepared in advance was added to the wells (100 μL to each well) for reaction under shaking at room temperature for one hour. After completion of reaction, the wells were washed four times with a washing solution (400 μL for each well), then a detection reagent (TMB Microwell; product of KPL, Catalogue No. 50-76-04, Lot. No. WF075) was added to the wells (100 μL to each well), and the mixture was allowed to stand for five minutes at room temperature.
(§4) 1N-Hydrochloric acid (100 μL) was added to each well for stopping the reaction. Absorbance of each well was measured at 450 nm and 620 nm, and “OD450-OD620” was calculated. A Multiscan (product of Labosystems) was used in measurement of absorbance. A well in which phages had not been immobilized served as a blank, and the absorbance of each well was determined by subtracting the blank value from the “as-measured” value.
(§5) A 0.1M NaHCO3 solution containing a GD3-mimetic peptide of the invention in the above MAP form (100 ng/100 μL) was added to the wells of a 96-well micro-titer plate, for immobilization at room temperature for one hour. Subsequently, in a manner similar to the ELISA method employed in Example 2, binding affinity of the GD3-mimetic peptide to GD3 antibody 4F6 was investigated.
(§6) Anti-GD2 antibody and anti-OAcGD3 antibody (Cerato, E., et al., Hybridoma, 16(4), 307-316 (1997)) were used as controls (these antibodies were kindly provided by from Dr. Portoukalian).

GD3 antibody 4F6 [3] = experiment: ELISA of immobilized phage clones with GD3 antibody 4F6 (Example 2); format: binding, mouse; conditions: phage clone immobilized, duplicate lines
Description: as §2, §3, §4

Anti-GD2 antibody = experiment: ELISA of immobilized MAP-form peptides with control anti-GD2 antibody; format: binding; conditions: MAP form 100 ng/well
Description: as §5, §6

[4] = tested on: T-cell-rich lymphocytes / IL-2-dependent CTLL2 cells; experiment: Cell response test: IL-2 activity (3H thymidine up-take of CTLL2 cells) in supernatant of spleen cells of mice immunized with GD3; format: cell-based, mouse; conditions: mice immunized with GD3
Description: Similar to the case of immunization with R4-KLH, antiserum samples were also prepared through immunization with GD3 (30 μg).
as §1

Anti-OAcGD3 antibody = experiment: ELISA of immobilized MAP-form peptides with control anti-OAcGD3 antibody; format: binding; conditions: MAP form 100 ng/well
Description: as §5, §6

[5] = stimulant 1 μg/ml, supernatant dilution 1/20
[6] = stimulant 1 μg/ml, supernatant dilution 1/50
[7] = stimulant 1 μg/ml, supernatant dilution ½
[8] = stimulant 1 μg/ml, supernatant dilution ⅕
[9] = stimulant 2 μg/ml, supernatant dilution 1/20
[10] = stimulant 2 μg/ml, supernatant dilution 1/50
[11] = stimulant 2 μg/ml, supernatant dilution ½
[12] = stimulant 2 μg/ml, supernatant dilution ⅕
[13] = stimulant 5 μg/ml, supernatant dilution 1/20
[14] = stimulant 5 μg/ml, supernatant dilution 1/50
[15] = stimulant 5 μg/ml, supernatant dilution ½
[16] = stimulant 5 μg/ml, supernatant dilution ⅕

LAPPRPRSELVFLSV (LAPPRPRSQLVFLSV) [GD3R1, tested as phage clone, MAP form or peptide]
3H Thymidine up-take into CTLL2 cells, mean ± SE (4 wells) [1, 5]: 949 ± 136 | 3H Thymidine up-take into CTLL2 cells, mean ± SE (4 wells) [1, 6]: 225 ± 38 | 3H Thymidine up-take into CTLL2 cells, mean ± SE (4 wells) [1, 7]: 3218 ± 716 | 3H Thymidine up-take into CTLL2 cells, mean ± SE (4 wells) [1, 8]: 1876 ± 281 | 3H Thymidine up-take into CTLL2 cells, mean ± SE (4 wells) [1, 9]: 845 ± 147 | 3H Thymidine up-take into CTLL2 cells, mean ± SE (4 wells) [1, 10]: 220 ± 40 | 3H Thymidine up-take into CTLL2 cells, mean ± SE (4 wells) [1, 11]: 3417 ± 542 | 3H Thymidine up-take into CTLL2 cells, mean ± SE (4 wells) [1, 12]: 1864 ± 327 | 3H Thymidine up-take into CTLL2 cells, mean ± SE (4 wells) [1, 13]: 901 ± 152 | 3H Thymidine up-take into CTLL2 cells, mean ± SE (4 wells) [1, 14]: 236 ± 45 | 3H Thymidine up-take into CTLL2 cells, mean ± SE (4 wells) [1, 15]: 3469 ± 612 | 3H Thymidine up-take into CTLL2 cells, mean ± SE (4 wells) [1, 16]: 1781 ± 285 | ELISA absorbance, Anti-GD3 antibody (GD3 antibody 4F6 [2]; Serum % 12.50%): 0.083 | ELISA absorbance, Anti-GD3 antibody (GD3 antibody 4F6 [2]; Serum % 25%): 0.127 | ELISA absorbance, Anti-GD3 antibody (GD3 antibody 4F6 [2]; Serum % 50%): 0.137 | ELISA absorbance, Anti-GD3 antibody (GD3 antibody 4F6 [2]; Serum % 100%): 0.263 | absorbance OD450-OD620, binding to GD3 antibody 4F6 (GD3 antibody 4F6 [3]; 10^9 titer/well): 0.017 and 0.026 | absorbance OD450-OD620, binding to GD3 antibody 4F6 (GD3 antibody 4F6 [3]; 10^10 titer/well): 0.067 and 0.055 | absorbance OD450-OD620, binding to GD3 antibody 4F6 (GD3 antibody 4F6 [3]; 10^11 titer/well): 0.094 and 0.086 | ELISA absorbance, Anti-GD2 antibody (Anti-GD2 antibody; Serum % 12.50%): 0.065 | ELISA absorbance, Anti-GD2 antibody (Anti-GD2 antibody; Serum % 25%): 0.067 | ELISA absorbance, Anti-GD2 antibody (Anti-GD2 antibody; Serum % 50%): 0.095 | ELISA absorbance, Anti-GD2 antibody (Anti-GD2 antibody; Serum % 100%): 0.123 | 3H Thymidine up-take into CTLL2 cells, mean ± SE (4 wells) [4, 5]: 888 ± 107 | 3H Thymidine up-take into CTLL2 cells, mean ± SE (4 wells) [4, 6]: 234 ± 43 | 3H Thymidine up-take into CTLL2 cells, mean ± SE (4 wells) [4, 7]: 3014 ± 671 | 3H Thymidine up-take into CTLL2 cells, mean ± SE (4 wells) [4, 8]: 1967 ± 276 | 3H Thymidine up-take into CTLL2 cells, mean ± SE (4 wells) [4, 9]: 906 ± 121 | 3H Thymidine up-take into CTLL2 cells, mean ± SE (4 wells) [4, 10]: 246 ± 38 | 3H Thymidine up-take into CTLL2 cells, mean ± SE (4 wells) [4, 11]: 3219 ± 546 | 3H Thymidine up-take into CTLL2 cells, mean ± SE (4 wells) [4, 12]: 1831 ± 259 | 3H Thymidine up-take into CTLL2 cells, mean ± SE (4 wells) [4, 13]: 942 ± 116 | 3H Thymidine up-take into CTLL2 cells, mean ± SE (4 wells) [4, 14]: 251 ± 44 | 3H Thymidine up-take into CTLL2 cells, mean ± SE (4 wells) [4, 15]: 3344 ± 497 | 3H Thymidine up-take into CTLL2 cells, mean ± SE (4 wells) [4, 16]: 1956 ± 285 | ELISA absorbance, Anti-OAcGD3 antibody (Anti-OAcGD3 antibody; Serum % 12.50%): 0.04 | ELISA absorbance, Anti-OAcGD3 antibody (Anti-OAcGD3 antibody; Serum % 25%): 0.041 | ELISA absorbance, Anti-OAcGD3 antibody (Anti-OAcGD3 antibody; Serum % 50%): 0.046 | ELISA absorbance, Anti-OAcGD3 antibody (Anti-OAcGD3 antibody; Serum % 100%): 0.053
